Measurements: ChEMBL document CHEMBL1201862, “PubChem BioAssay data set” (2004)
The source made the active and inactive calls.

How the values were obtained:
Type in all cases: functional
[1] = biological target: T1, Replicative DNA helicase DnaB (Mycobacterium tuberculosis, UniProt P9WMR3); assay: DnaB intein splicing inhibitors, dose response, biochemical, cell-free fluorescence (AID 449749)
T1 sequence (P9WMR3 whole entry): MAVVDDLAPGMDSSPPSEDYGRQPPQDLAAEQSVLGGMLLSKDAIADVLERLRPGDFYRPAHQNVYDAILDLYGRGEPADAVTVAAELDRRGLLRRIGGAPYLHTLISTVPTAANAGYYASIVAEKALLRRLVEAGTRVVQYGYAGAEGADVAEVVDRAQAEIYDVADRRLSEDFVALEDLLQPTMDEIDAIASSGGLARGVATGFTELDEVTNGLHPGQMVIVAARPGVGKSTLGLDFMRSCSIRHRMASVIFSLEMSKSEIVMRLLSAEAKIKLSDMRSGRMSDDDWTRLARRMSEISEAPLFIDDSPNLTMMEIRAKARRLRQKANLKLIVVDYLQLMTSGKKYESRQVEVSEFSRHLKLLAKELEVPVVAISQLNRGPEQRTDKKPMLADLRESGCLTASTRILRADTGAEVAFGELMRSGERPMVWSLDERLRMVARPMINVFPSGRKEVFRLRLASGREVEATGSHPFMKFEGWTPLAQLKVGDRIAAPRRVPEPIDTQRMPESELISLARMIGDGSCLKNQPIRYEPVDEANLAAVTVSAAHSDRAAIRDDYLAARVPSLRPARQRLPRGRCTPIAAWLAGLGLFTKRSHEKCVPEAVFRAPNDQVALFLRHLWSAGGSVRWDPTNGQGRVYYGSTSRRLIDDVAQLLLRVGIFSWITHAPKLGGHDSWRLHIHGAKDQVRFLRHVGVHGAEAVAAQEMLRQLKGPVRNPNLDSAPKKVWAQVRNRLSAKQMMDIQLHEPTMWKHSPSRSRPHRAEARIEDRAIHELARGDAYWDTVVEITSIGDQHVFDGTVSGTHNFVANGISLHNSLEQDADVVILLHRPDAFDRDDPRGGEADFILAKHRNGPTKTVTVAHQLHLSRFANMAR

Protein RecA = biological target: T2, Protein RecA (Mycobacterium tuberculosis, UniProt P9WHJ3); assay: Fluorescence Cell-Free Homogeneous Dose Retest to Identify Inhibitors of RecA-Intein Splicing Activity. [Related pubchem assays (depositor defined):AID2097, AID2223, AID489010, AID492950]
T2 sequence (P9WHJ3 whole entry): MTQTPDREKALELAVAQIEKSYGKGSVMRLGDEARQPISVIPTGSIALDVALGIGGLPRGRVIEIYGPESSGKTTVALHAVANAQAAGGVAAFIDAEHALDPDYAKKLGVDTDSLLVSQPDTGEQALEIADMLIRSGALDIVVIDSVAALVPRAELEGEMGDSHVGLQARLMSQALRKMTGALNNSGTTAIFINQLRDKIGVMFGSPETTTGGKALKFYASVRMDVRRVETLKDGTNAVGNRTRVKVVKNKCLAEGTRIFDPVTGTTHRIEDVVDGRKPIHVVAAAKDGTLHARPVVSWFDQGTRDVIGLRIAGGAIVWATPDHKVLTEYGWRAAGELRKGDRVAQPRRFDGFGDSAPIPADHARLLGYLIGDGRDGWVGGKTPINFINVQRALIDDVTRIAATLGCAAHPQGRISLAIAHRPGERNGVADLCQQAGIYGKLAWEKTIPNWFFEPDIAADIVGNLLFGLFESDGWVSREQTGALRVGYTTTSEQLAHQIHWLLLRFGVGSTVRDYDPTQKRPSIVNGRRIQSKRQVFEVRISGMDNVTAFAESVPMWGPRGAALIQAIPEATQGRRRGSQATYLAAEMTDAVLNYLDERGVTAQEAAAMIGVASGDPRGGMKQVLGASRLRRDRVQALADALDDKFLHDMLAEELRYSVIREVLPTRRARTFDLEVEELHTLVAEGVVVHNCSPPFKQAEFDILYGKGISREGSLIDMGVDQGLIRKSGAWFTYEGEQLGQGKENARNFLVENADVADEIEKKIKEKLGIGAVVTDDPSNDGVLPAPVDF

[2] = biological target: T3, Serine/threonine-protein kinase D3 (Homo sapiens, UniProt O94806);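 note: determined within a kinase panel screen, with PRKCN as the panel member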
T3 sequence (O94806 whole entry): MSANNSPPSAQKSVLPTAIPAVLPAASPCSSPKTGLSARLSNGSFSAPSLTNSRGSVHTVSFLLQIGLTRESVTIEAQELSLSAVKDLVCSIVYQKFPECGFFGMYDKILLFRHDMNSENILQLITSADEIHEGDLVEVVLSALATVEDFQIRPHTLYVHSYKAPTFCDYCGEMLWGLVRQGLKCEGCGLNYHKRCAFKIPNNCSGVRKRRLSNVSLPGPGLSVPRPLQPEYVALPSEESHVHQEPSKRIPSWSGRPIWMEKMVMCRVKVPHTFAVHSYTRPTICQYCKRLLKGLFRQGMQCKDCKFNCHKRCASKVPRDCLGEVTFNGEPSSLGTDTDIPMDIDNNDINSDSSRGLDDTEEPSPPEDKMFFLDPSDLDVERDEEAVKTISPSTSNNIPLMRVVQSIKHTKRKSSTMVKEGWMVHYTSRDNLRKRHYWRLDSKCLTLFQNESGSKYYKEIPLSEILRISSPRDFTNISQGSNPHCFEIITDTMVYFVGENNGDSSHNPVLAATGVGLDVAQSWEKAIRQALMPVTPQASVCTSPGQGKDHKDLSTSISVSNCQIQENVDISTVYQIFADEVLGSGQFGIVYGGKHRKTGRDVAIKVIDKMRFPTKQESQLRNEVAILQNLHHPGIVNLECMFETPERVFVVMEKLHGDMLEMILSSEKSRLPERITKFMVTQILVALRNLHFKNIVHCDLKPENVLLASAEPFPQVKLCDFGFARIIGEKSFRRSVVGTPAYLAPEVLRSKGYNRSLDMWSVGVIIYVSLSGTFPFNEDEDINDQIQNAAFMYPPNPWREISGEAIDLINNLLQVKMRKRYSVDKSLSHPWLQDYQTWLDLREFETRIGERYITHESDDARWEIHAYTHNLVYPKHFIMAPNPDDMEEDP

[3] = biological target: Cyclin-dependent kinase 5 (Homo sapiens, UniProt Q00535);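 note: CDK5 measured as one member of a kinase profiling panel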
[4] = biological target: Platelet-derived growth factor receptor alpha (Homo sapiens, UniProt P16234); assay: Navigating the Kinome. Panel member name: PDGFRA
Aurora kinase B = Aurora kinase B (Homo sapiens, UniProt Q96GD4)
[5] = biological target: Leukocyte tyrosine kinase receptor (Homo sapiens, UniProt P29376); assay: Navigating the Kinome. Panel member name: LTK
Sequence of Leukocyte tyrosine kinase receptor (P29376 whole entry): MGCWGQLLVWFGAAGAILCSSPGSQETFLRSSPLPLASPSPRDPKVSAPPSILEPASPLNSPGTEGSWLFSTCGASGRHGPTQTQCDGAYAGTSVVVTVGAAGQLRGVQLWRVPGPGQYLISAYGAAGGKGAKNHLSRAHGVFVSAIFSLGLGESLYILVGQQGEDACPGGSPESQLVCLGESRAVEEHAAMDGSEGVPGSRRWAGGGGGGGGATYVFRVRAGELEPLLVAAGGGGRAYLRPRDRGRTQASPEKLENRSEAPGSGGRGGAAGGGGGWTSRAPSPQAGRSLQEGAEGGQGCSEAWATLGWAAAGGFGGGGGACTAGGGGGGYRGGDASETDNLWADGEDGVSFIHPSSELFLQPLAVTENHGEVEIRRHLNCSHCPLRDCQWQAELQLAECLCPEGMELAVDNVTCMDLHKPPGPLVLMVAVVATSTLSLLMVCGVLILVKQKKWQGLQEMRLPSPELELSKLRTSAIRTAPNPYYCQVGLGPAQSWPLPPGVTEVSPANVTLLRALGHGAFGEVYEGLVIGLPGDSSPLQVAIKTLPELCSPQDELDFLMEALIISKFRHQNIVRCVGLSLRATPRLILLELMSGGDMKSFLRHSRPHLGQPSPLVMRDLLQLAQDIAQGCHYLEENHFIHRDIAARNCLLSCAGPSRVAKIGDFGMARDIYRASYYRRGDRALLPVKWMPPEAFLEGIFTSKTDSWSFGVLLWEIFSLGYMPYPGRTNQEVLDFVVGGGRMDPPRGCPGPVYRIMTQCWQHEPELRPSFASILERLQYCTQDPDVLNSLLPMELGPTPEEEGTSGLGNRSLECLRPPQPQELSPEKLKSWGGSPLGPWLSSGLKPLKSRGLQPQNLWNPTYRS

Sequence of Platelet-derived growth factor receptor alpha (P16234 whole entry): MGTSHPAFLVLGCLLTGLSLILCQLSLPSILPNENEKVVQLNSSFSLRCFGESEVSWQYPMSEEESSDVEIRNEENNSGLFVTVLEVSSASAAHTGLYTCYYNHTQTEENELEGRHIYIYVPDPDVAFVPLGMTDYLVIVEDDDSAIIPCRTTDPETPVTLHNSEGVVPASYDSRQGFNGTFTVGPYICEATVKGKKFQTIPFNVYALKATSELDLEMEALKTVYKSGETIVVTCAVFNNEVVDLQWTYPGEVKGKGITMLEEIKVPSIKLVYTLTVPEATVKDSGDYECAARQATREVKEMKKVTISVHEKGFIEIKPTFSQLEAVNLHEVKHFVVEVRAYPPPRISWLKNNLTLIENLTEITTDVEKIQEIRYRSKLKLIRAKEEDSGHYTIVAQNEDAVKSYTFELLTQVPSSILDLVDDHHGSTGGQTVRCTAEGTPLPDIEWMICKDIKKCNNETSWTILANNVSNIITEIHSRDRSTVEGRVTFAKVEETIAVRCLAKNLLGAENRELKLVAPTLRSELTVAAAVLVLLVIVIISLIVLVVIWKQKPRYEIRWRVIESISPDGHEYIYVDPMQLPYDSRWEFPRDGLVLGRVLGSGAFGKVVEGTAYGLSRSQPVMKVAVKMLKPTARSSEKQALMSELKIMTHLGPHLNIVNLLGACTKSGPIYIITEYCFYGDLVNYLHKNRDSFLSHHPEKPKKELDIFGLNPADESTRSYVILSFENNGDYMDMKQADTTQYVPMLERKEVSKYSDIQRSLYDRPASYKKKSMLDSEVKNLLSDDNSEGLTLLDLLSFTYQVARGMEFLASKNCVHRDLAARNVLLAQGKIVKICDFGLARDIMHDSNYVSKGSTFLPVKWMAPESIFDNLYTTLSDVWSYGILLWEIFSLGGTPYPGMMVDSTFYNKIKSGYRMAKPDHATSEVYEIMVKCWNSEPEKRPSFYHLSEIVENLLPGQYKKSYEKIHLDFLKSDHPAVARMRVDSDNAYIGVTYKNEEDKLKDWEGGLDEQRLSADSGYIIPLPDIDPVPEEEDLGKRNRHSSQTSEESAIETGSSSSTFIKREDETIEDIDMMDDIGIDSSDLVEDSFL
Sequence of Aurora kinase B (Q96GD4 whole entry): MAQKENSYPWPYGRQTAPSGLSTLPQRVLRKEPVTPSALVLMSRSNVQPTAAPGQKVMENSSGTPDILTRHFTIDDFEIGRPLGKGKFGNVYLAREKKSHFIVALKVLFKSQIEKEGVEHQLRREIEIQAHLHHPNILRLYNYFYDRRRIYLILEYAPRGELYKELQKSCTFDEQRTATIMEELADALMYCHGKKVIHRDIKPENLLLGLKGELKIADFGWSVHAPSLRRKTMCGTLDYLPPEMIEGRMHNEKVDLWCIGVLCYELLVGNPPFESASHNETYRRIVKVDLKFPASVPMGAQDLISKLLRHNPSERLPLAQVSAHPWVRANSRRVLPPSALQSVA
Sequence of Cyclin-dependent kinase 5 (Q00535 whole entry): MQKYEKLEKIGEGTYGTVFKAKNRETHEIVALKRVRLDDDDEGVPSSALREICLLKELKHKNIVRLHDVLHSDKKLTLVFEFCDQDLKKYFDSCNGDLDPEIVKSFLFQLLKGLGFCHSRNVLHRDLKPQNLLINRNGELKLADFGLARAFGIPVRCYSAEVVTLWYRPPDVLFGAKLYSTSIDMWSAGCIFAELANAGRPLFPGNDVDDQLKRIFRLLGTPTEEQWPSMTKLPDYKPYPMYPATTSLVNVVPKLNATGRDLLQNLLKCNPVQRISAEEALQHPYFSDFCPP

Structure (SMILES) | AC50 [1] | EC50 (Protein RecA) | Ki [2] | Ki [3] | Ki [4] | Ki (Aurora kinase B) | Ki [5]
O=C1/C(=C\c2cccc(O)c2O)SC(=S)N1Cc1ccccc1 | > 380000 nM (inactive) | 1950 nM (active) | – | – | – | – | –
CC(C)(C)c1cc[n+](C2=C([N-]S(=O)(=O)c3cccs3)C(=O)c3ccccc3C2=O)cc1 | 980 nM (active) | 950 nM (active) | – | – | – | – | –
COc1c(-c2nc3ccccc3[nH]2)c(O)cc2oc(C)cc(=O)c12 | – | – | 794 nM (active) | 794 nM (active) | 631 nM (active) | 794 nM (active) | 158 nM (active)
COC(=O)c1c(N)nc2ccccn12 | – | – | 50100 nM (active) | 39800 nM (active) | 79400 nM (active) | 15800 nM (active) | 10000 nM (active)
CCc1ccc(S(=O)(=O)/N=C2\C=C(Nc3ccc(O)cc3)C(=O)c3ccccc32)cc1 | 416 nM (active) | 306 nM (active) | – | – | – | – | –
Cc1ccc(F)c(NC(=O)Nc2ccc(-c3cccc4[nH]nc(N)c34)cc2)c1 [LINIFANIB] | – | – | > 3980 nM (inactive) | > 3160 nM (inactive) | 50.1 nM (active) | 79.4 nM (active) | 1000 nM (active)
